{
  "source": "the supplement of paper PMC10307832",
  "assay_in_all_cases": "relative viability (nuclei count vs DMSO), 5 days (fraction); higher = more cells survive",
  "key": {"[1]": {"compound": "COC1=CC=C(C=C1)CN2C=CC3=C2C=C(C=C3)C(=O)NO + Cc1nc(NC(=O)N2CCC[C@H]2C(N)=O)sc1-c1ccnc(C(C)(C)C(F)(F)F)c1 [Alpelisib] (partner 2 µM)", "in_short": "(§1)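 Nuclei were stained with Hoechst during a one-step fixation (final 0.05% Triton X-100, 1% formaldehyde, 1 ug/ml Hoechst) carried out 5 days after dosing, then counted on 4× images. The cells, lung cancer lines in 1536-well plates, had been dosed by pin tool the day after seeding with one drug alone or a fixed anchor-drug dose plus five library-drug doses (not always all listed) in √10 steps. Relative viability is the nuclei count in treated wells divided by that in vehicle wells, and each value is the median of duplicate plates.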"}, "[2]": {"compound": "COC1=CC=C(C=C1)CN2C=CC3=C2C=C(C=C3)C(=O)NO + C[C@]1(O)C[C@@H](c2nc(-c3ccc4ccc(-c5ccccc5)nc4c3)c3c(N)nccn32)C1 [Linsitinib] (partner 1 µM)", "in_short": "as §1"}, "Veliparib + Trametinib": {"compound": "C[C@]1(c2nc3c(C(N)=O)cccc3[nH]2)CCCN1 [Veliparib] + CC(=O)Nc1cccc(-n2c(=O)n(C3CC3)c(=O)c3c(Nc4ccc(I)cc4F)n(C)c(=O)c(C)c32)c1 [Trametinib] (partner 0.02 µM)", "in_short": "as §1"}, "[3]": {"compound": "COC1=CC=C(C=C1)CN2C=CC3=C2C=C(C=C3)C(=O)NO + CS(=O)(=O)CCNCc1ccc(-c2ccc3ncnc(Nc4ccc(OCc5cccc(F)c5)c(Cl)c4)c3c2)o1 [Lapatinib] (partner 2 µM)", "in_short": "as §1"}},
  "data": [
    {"cell line": "SW 1573", "values": [
      {"measurement": "relative viability", "setting": "[1]; first compound 0.253 µM", "value": 0.824},
      {"measurement": "relative viability", "setting": "[1]; first compound 0.8 µM", "value": 0.734},
      {"measurement": "relative viability", "setting": "[1]; first compound 2.53 µM", "value": 0.72},
      {"measurement": "relative viability", "setting": "[1]; first compound 8 µM", "value": 0.787},
      {"measurement": "relative viability", "setting": "[2]; first compound 0.253 µM", "value": 0.835},
      {"measurement": "relative viability", "setting": "[2]; first compound 0.8 µM", "value": 0.761},
      {"measurement": "relative viability", "setting": "[2]; first compound 2.53 µM", "value": 0.666},
      {"measurement": "relative viability", "setting": "[2]; first compound 8 µM", "value": 0.514},
      {"measurement": "relative viability", "setting": "Veliparib + Trametinib; first compound 0.06325 µM", "value": 0.474},
      {"measurement": "relative viability", "setting": "Veliparib + Trametinib; first compound 0.2 µM", "value": 0.52},
      {"measurement": "relative viability", "setting": "Veliparib + Trametinib; first compound 0.6325 µM", "value": 0.513},
      {"measurement": "relative viability", "setting": "Veliparib + Trametinib; first compound 2 µM", "value": 0.548},
      {"measurement": "relative viability", "setting": "[3]; first compound 0.253 µM", "value": 1.07},
      {"measurement": "relative viability", "setting": "[3]; first compound 0.8 µM", "value": 1.36},
      {"measurement": "relative viability", "setting": "[3]; first compound 2.53 µM", "value": 1.2},
      {"measurement": "relative viability", "setting": "[3]; first compound 8 µM", "value": 0.859}
    ]}
  ]
}
